Assay results: PMC5736175, “Nicotinic alpha 7 receptor agonists EVP-6124 and BMS-933043, attenuate scopolamine-induced deficits in visuo-spatial paired associates learning” (PLoS ONE, 2017)
Values joined by “and” are separate entries in the source; they are usually repeats but may differ in a detail not shown here. Equal values may be shown once. “Also recorded” adds a separate entry of the source.

Columns and labels:
[1] = Plasma concentration in vsPAL subjects immediately after completion of testing (LC-MS/MS); settings: for concentration at 69.8 min: cynomolgus monkey, in vivo
Protocol: For all compounds, plasma pharmacokinetic studies were conducted in a separate cohort of cynomolgus monkeys (N = 2–3 subjects per dose) before beginning vsPAL testing to help guide dose selection. Blood samples were obtained with the animals awake and sitting in a primate chair. For most test sessions with BMS-933043 and EVP-6124, plasma samples were also taken from a subset of vsPAL subjects (N = 4–5) immediately after completion of testing (mean (SD) sample collection time = 69.8 (9.8) min post injection).
(§1) Plasma concentrations of test compounds were determined using LC-MS/MS assays. In brief, 50 μL plasma and sample containing compounds was extracted by protein precipitation method with 150 μL acetonitrile containing an internal standard. A 5 μL sample of supernatant was injected into the LC-MS/MS system. Analytes were separated by reversed phase chromatography and detection of each analyte was achieved through selected reaction monitoring mode of mass spectrometry. Samples were quantified by calculated peak area ratio of analyte and internal standard against a calibration curve.

[2] = Plasma pharmacokinetics in satellite animals (LC-MS/MS), 60 min after i.m. dose; settings: for concentration at 60 min: cynomolgus monkey, in vivo, nM total compound in plasma from satellite animals
Protocol: For all compounds, plasma pharmacokinetic studies were conducted in a separate cohort of cynomolgus monkeys (N = 2–3 subjects per dose) before beginning vsPAL testing to help guide dose selection. Blood samples were obtained with the animals awake and sitting in a primate chair.
as §1

5-HT3 receptor = settings: cited from earlier work
[3] = system: scopolamine-treated cynomolgus monkeys; test: Scopolamine-induced impairment of vsPAL task performance, treatment + scopolamine; format: in vivo, cynomolgus monkeys (Macaca Fasicularis); settings: for Cohen's d / effect r: eventual accuracy, 4-stimuli; for mean (cohen's d calculations): eventual correct; for % Completion / Average Response Latency (Avg Rsp Lat) / Eventual Correct, 2 Stimuli / Eventual Correct, 3 Stimuli / Eventual Correct, 4 Stimuli / Eventual Correct, Overall Mean % Correct / Initial Correct, 3 Stimuli / Initial Correct, 4 Stimuli / Initial Correct, Overall Mean % Correct / Initial correct, 2 Stimuli: im + Scopolamine
[4] = 0.03 mg/kg i.m., individual subjects
[5] = 0.10 mg/kg i.m., individual subjects
[6] = 0.30 mg/kg i.m., individual subjects
[7] = 1.00 mg/kg i.m., individual subjects
[8] = 0.03 mg/kg + scopolamine vs vehicle+scopolamine
[9] = 0.1 mg/kg + scopolamine vs vehicle+scopolamine
[10] = 0.3 mg/kg + scopolamine vs vehicle+scopolamine
[11] = BMS-933043 0.03 mg/kg, group MEAN
[12] = BMS-933043 0.03 mg/kg, individual animals, 0.03 mg/kg
[13] = BMS-933043 0.1 mg/kg, group MEAN

c1cn(-c2cc(NC3=NC[C@@]4(CN5CCC4CC5)O3)ncn2)cn1 [BMS-933043, (2R)-N-(6-(1H-imidazol-1-yl)-4-pyrimidinyl)-4'H-spiro[4-azabicyclo[2.2.2]octane-2,5'-[1, 3]oxazol]-2'-amine]
nM total compound in plasma post session [1, 4]: 14.6 nM and 11.9 nM and 13.1 nM
nM total compound in plasma post session [1, 5]: 37.9 nM and 51.3 nM and 45.6 nM
nM total compound in plasma post session [1, 6]: 156 nM and 134 nM and 143 nM
nM total compound in plasma post session [1, 7]: 414 nM and 530 nM and 413 nM
concentration at 69.8 min ([1]; 0.03 mg/kg, nM total compound in plasma post session, 0.03 mg/kg i.m., individual subjects): 13.4 nM
concentration at 69.8 min ([1]; 0.03 mg/kg, nM total compound in plasma post session, 0.03 mg/kg i.m., mean 69.8 min post injection, group mean): 13.3 nM
concentration at 69.8 min ([1]; 0.1 mg/kg, nM total compound in plasma post session, 0.10 mg/kg i.m., individual subjects): 56.3 nM
concentration at 69.8 min ([1]; 0.1 mg/kg, nM total compound in plasma post session, 0.10 mg/kg i.m., mean 69.8 min post injection, group mean): 47.8 nM
concentration at 69.8 min ([1]; 0.3 mg/kg, nM total compound in plasma post session, 0.30 mg/kg i.m., individual subjects): 125 nM
concentration at 69.8 min ([1]; 0.3 mg/kg, nM total compound in plasma post session, 0.30 mg/kg i.m., mean 69.8 min post injection, group mean): 140 nM
concentration at 69.8 min ([1]; 1 mg/kg, nM total compound in plasma post session, 1.00 mg/kg i.m., individual subjects): 614 nM
concentration at 69.8 min ([1]; 1 mg/kg, nM total compound in plasma post session, 1.00 mg/kg i.m., mean 69.8 min post injection, group mean): 493 nM
concentration at 69.8 min ([1]; 1 mg/kg, plasma concentration at which efficacy was lost, scopolamine vsPAL model): 493 nM
concentration at 69.8 min ([1]; mean plasma concentration at which improved eventual accuracy was observed, experimental subjects on completion of behavioral testing, efficacious doses): 13.3 to 140 nM
nM total compound in plasma from satellite animals, 60 min [2, 4]: 16.6 nM and 18.4 nM
nM total compound in plasma from satellite animals, 60 min [2, 5]: 60.9 nM and 70.1 nM
nM total compound in plasma from satellite animals, 60 min [2, 6]: 145.0 nM and 280.0 nM and 133.0 nM
nM total compound in plasma from satellite animals, 60 min [2, 7]: 1100.0 nM
concentration at 60 min ([2]; 0.03 mg/kg, 0.03 mg/kg i.m., individual subjects): 20.1 nM
concentration at 60 min ([2]; 0.03 mg/kg, 0.03 mg/kg i.m., mean): 18.4 nM
concentration at 60 min ([2]; 0.1 mg/kg, 0.10 mg/kg i.m., individual subjects): 66.6 nM
concentration at 60 min ([2]; 0.1 mg/kg, 0.10 mg/kg i.m., mean): 65.9 nM
concentration at 60 min ([2]; 0.3 mg/kg, 0.30 mg/kg i.m., mean): 186 nM
concentration at 60 min ([2]; 1 mg/kg, 1.00 mg/kg i.m., individual subjects): 739 nM
concentration at 60 min ([2]; 1 mg/kg, 1.00 mg/kg i.m., mean): 920 nM
selectivity for nAChR α7 versus the 5-HT3 receptor (5-HT3 receptor): highly selective
Cohen's d [3, 8]: 0.64
effect r [3, 8]: 0.306
Cohen's d ([3]; 0.03 mg/kg + scopolamine vs vehicle+scopolamine, listed as 933043): 0.643
Cohen's d [3, 9]: 0.73
effect r [3, 9]: 0.343
Cohen's d ([3]; 0.1 mg/kg + scopolamine vs vehicle+scopolamine, listed as 933043): 0.7311
Cohen's d [3, 10]: 1.2
effect r [3, 10]: 0.51
effect on scopolamine-induced impairment of eventual accuracy ([3]; 0.03, 0.1 and 0.3 mg/kg i.m., 4-stimuli condition): significantly ameliorated; also recorded: significantly reversed
mean (cohen's d calculations) ([3]; 0.03 mpk + scop, 4-stimuli condition): 81.7
mean (cohen's d calculations) ([3]; 0.1 mpk + scop, 4-stimuli condition): 81.4
mean (cohen's d calculations) ([3]; 0.3 mpk + scop, 4-stimuli condition): 90.0
% Completion [3, 11]: 80.9%
Average Response Latency (Avg Rsp Lat) [3, 11]: 2008.1 ms
Eventual Correct, 2 Stimuli [3, 11]: 100.0%
Eventual Correct, 3 Stimuli [3, 11]: 88.6%
Eventual Correct, 4 Stimuli [3, 11]: 81.7%
Eventual Correct, Overall Mean % Correct [3, 11]: 89.8%
Initial Correct, 3 Stimuli [3, 11]: 58.6%
Initial Correct, 4 Stimuli [3, 11]: 38.3%
Initial Correct, Overall Mean % Correct [3, 11]: 63.6%
Initial correct, 2 Stimuli [3, 11]: 90.0%
Eventual Correct, 2 Stimuli ([3]; BMS-933043 0.03 mg/kg, individual animals): 100.0%
% Completion [3, 12]: 81.8% and 100.0% and 81.3% and 32.1% and 72.4% and 98.5%
Average Response Latency (Avg Rsp Lat) [3, 12]: 2181.5 ms and 1558.2 ms and 1198.4 ms and 2787.4 ms and 1505.0 ms and 2151.4 ms and 2675.1 ms
Eventual Correct, 3 Stimuli [3, 12]: 90.0% and 100.0% and 50.0%
Eventual Correct, 4 Stimuli [3, 12]: 100.0% and 90.0% and 40.0% and 80.0%
Eventual Correct, Overall Mean % Correct [3, 12]: 96.7% and 76.7% and 100.0% and 75.0% and 90.0% and 93.3%
Initial Correct, 3 Stimuli [3, 12]: 70.0% and 60.0% and 40.0% and 80.0% and 20.0%
Initial Correct, 4 Stimuli [3, 12]: 40.0% and 10.0% and 80.0% and 20.0%
Initial Correct, Overall Mean % Correct [3, 12]: 70.0% and 66.7% and 56.7% and 76.7% and 65.0% and 40.0%
Initial correct, 2 Stimuli [3, 12]: 100.0% and 90.0% and 80.0%
% Completion [3, 13]: 84.8%
Average Response Latency (Avg Rsp Lat) [3, 13]: 1958.7 ms
Eventual Correct, 2 Stimuli [3, 13]: 100.0%
Eventual Correct, 3 Stimuli [3, 13]: 98.6%
Eventual Correct, 4 Stimuli [3, 13]: 81.4%
Eventual Correct, Overall Mean % Correct [3, 13]: 93.3%
Initial Correct, 3 Stimuli [3, 13]: 75.7%
Initial Correct, 4 Stimuli [3, 13]: 35.7%
Initial Correct, Overall Mean % Correct [3, 13]: 66.7%
Initial correct, 2 Stimuli [3, 13]: 88.6%
